Experimental data from PMC3925040 (British Journal of Pharmacology, 2014).

How the values were obtained:
[1] = molecular target: T1, transient receptor potential melastatin 3 (TRPM3) (Mus musculus, UniProt J9SQF3); assay: Fura2 Ca2+ imaging in HEK293 cells, inhibition of PS response at […]; assay type: cell-based
[2] = molecular target: T1, transient receptor potential melastatin 3 (TRPM3); assay: whole-cell patch clamp inhibition of PS-evoked current in HEK293 cells; assay type: cell-based; conditions: HEK293, read-out: % inhibition at 21 μM

T1 sequence (J9SQF3 1-1709 isoform J9SQF3-12): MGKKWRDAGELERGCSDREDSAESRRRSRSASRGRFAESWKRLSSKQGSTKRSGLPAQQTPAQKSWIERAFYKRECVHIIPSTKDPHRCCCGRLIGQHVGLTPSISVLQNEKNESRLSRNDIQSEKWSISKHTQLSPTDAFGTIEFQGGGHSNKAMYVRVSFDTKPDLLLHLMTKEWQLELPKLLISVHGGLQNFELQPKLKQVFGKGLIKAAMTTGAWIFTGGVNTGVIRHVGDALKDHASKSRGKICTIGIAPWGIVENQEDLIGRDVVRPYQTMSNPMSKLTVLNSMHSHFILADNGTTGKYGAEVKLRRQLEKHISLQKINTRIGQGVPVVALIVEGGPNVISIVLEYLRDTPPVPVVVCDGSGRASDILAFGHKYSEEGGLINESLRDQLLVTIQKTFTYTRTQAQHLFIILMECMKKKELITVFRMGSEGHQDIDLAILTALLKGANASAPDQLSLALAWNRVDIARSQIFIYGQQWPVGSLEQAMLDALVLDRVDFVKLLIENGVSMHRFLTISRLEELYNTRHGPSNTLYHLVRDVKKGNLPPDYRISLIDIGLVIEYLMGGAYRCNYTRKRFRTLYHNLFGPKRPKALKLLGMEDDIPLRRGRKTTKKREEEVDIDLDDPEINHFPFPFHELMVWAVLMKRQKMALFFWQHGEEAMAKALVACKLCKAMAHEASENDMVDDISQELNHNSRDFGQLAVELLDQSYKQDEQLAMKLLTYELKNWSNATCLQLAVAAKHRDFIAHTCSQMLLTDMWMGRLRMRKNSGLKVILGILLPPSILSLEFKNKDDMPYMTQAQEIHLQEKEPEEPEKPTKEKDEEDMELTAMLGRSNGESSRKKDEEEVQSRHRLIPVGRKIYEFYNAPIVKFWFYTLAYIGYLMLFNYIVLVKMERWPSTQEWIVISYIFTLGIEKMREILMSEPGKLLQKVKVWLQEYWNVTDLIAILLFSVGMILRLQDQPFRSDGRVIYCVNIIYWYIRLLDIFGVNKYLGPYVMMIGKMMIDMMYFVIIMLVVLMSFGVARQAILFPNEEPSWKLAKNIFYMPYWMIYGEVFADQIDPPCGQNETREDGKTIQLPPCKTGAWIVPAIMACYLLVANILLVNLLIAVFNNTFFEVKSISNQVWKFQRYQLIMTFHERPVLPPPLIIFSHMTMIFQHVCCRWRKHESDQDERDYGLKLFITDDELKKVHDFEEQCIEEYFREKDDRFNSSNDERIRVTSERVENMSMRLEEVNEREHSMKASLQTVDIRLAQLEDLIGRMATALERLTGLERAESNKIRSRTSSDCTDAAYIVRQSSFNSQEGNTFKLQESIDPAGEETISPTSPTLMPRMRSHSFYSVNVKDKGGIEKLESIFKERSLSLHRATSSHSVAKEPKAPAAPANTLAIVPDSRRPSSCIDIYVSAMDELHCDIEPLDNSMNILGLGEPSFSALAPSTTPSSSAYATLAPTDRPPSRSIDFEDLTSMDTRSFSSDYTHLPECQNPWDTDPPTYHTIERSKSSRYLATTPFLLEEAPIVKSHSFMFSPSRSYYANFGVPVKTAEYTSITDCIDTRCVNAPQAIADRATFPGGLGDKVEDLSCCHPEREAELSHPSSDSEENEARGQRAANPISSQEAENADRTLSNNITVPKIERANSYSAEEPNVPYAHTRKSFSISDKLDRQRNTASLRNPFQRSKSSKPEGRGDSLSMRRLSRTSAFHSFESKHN

Row | inhibition at 21 µM [2] | Structure (SMILES) | Fura2 Ca2+ imaging in HEK293 cells, inhibition of PS response at 50 μM [1]
1 |  | COC(=O)C1=C(C)NC(C)=C(C(=O)OCCN(C)Cc2ccccc2)C1c1cccc([N+](=O)[O-])c1 (centres unmarked) [Nic, nicardipine] | nicardipine also inhibited PS-induced TRPM3 activation
2 | 70.2% | COCCOC(=O)C1=C(C)NC(C)=C(C(=O)OC(C)C)C1c1cccc([N+](=O)[O-])c1 (centres unmarked) [nimodipine] | 
